In general, inhibition refers to the share of the control response that was lost under treatment.

We go through 23 compounds from US6410558B1, “Fungicides for the control of take-all disease of plants” (Monsanto Technology LLC, priority 1991, dated 2002).

This assay relates to Gaeumannomyces graminis var. tritici (Ggt). Put plainly: In vitro Assay: mycelial growth of Ggt on minimal media agar plates containing test compound. It counts as cell-based. The conditions noted are these: dark, 19-20° C., 4 to 5 days, diameter of mycelial growth; for inhibition at 0.1 ppm / inhibition at 1 ppm / inhibition at 10 ppm: Gaeumannomyces graminis; for inhibition at 0.1 ppm: read-out: In vitro (ppm) 0.1, Percent Inhibition; for inhibition at 1 ppm: read-out: In vitro (ppm) 1, Percent Inhibition; for inhibition at 10 ppm: read-out: In vitro (ppm) 10, Percent Inhibition. How it is done: The test compounds (0.25 mL of an appropriate stock solution in acetone) are incorporated into 25 mL minimal media agar [(prepared by autoclaving a solution of 17.5 g Czapek Dox broth (Difco), 7.5 g purified agar or Bacto-agar (Difco), and 500 mL distilled/deionized water, and then adding 50 μL of 1 mg/mL thiamine hydrochloride and 50 μL of 1 mg/mL biotin in 5% ethanol] and plates are prepared.
Each plate is inoculated by placing in a triangular shape three 4-mm plugs of Gaeumannomyces graminis var. tritici (Ggt) grown on the minimal media agar described above. The plates are incubated in the dark at 19-20° C. for 4 to 5 days. The growth of the fungus is measured as the diameter of the mycelial growth. The result is expressed as Percent Inhibition, calculated as [1-[(mm growth on treated plate −4)/(mm growth on control plate −4)]]×100.

A value given as a limit tells only on which side of the number the result lay.

`CCNC(=O)c1sc(C)c(C)c1[Si](C)(C)C` [Example 286, 4,5-Dimethyl-N-ethyl-3-(trimethylsilyl)-2-thiophenecarboxamide]: the inhibition at 0.1 ppm (0.1 ppm in minimal media agar) came out at 76%. Besides, for the setting “1 ppm in minimal media agar”, the inhibition at 1 ppm turned out to be 93%. Also, the inhibition at 10 ppm (10 ppm in minimal media agar) was 100%.

Regarding `C[Si](C)(C)c1cccc(Cl)c1C(=O)NCc1ccc(C(F)(F)F)cc1` [Example 102, 2-Chloro-N-[[4-(trifluoromethyl)phenyl]-methyl]-6-(trimethylsilyl)-benzamide], the inhibition at 0.1 ppm (0.1 ppm in minimal media agar) worked out at 28%. Moreover, the inhibition at 1 ppm (1 ppm in minimal media agar) was 52%. The inhibition at 10 ppm (10 ppm in minimal media agar) worked out at 28%.

Consider `CCN(C)C(=O)c1c(Cl)cccc1N(C)C(C)(C)C` [Example 189, 2-Chloro-6-[(1,1-dimethylethyl)methylamino]-N-ethyl-N-methylbenzamide], for which the inhibition at 0.1 ppm (0.1 ppm in minimal media agar) is 4%. Besides, the inhibition at 1 ppm (1 ppm in minimal media agar) was found to be 13%. Besides, the inhibition at 10 ppm (10 ppm in minimal media agar) was 65%.

Regarding `CCNC(=O)c1c([Si](C)(C)C)ccc(Cl)c1Cl` [Example 203, 2,3-Dichloro-N-ethyl-6-(trimethylsilyl)benzamide], the inhibition at 0.1 ppm (0.1 ppm in minimal media agar) worked out at 79%. In addition, the inhibition at 1 ppm (1 ppm in minimal media agar) stood at 84%. Also, the inhibition at 10 ppm (10 ppm in minimal media agar) came to 91%.

For the compound `CCN(CC)C(=O)c1cc(C)ccc1[Si](C)(C)C` [Example 63, N,N-Diethyl-5-methyl-2-(trimethylsilyl)benzamide], the inhibition at 0.1 ppm (0.1 ppm in minimal media agar) is less than 0%. The inhibition at 1 ppm (1 ppm in minimal media agar) worked out at 40%. Moreover, where the note is “10 ppm in minimal media agar”, the inhibition at 10 ppm turned out to be 69%.

`CCN(CC)C(=O)c1ccc(C)cc1[Si](C)(C)C` [Example 58, N,N-Diethyl-4-methyl-2-(trimethylsilyl)benzamide]: the inhibition at 0.1 ppm (0.1 ppm in minimal media agar) turned out to be 13%. Also, the inhibition at 1 ppm (1 ppm in minimal media agar) worked out at 6%. The inhibition at 10 ppm (10 ppm in minimal media agar) worked out at 55%.

Consider `CCN(CC)C(=O)c1c(C(=O)OC)ccc(F)c1[Si](C)(C)C` [Example 42, 2-[(Diethylamino)carbonyl]-4-fluoro-3-(trimethylsilyl)benzoic acid, methyl ester], for which the inhibition at 0.1 ppm (0.1 ppm in minimal media agar) was less than 0%. Also, for the setting “1 ppm in minimal media agar”, the inhibition at 1 ppm is less than 0%. For the same compound, the inhibition at 10 ppm (10 ppm in minimal media agar) is 30%.

Consider `CCNC(=O)c1cc(C(F)(F)F)ccc1[Si](C)(C)C` [Example 225, N-Ethyl-5-(trifluoromethyl)-2-(trimethylsilyl)benzamide], for which, for the setting “0.1 ppm in minimal media agar”, the inhibition at 0.1 ppm came out at 18%. The inhibition at 1 ppm (1 ppm in minimal media agar) turned out to be 64%. Further, the inhibition at 10 ppm (10 ppm in minimal media agar) came out at 95%.

Regarding `CC(NC(=O)c1c(Cl)cccc1[Si](C)(C)C)c1ccccc1` (stereo not drawn) [Example 161, 2-Chloro-N-(1-phenylethyl)-6-(trimethylsilyl)benzamide], the inhibition at 0.1 ppm (0.1 ppm in minimal media agar) was found to be 22%. Also, the inhibition at 1 ppm (1 ppm in minimal media agar) was 17%. Also, the inhibition at 10 ppm (10 ppm in minimal media agar) worked out at 61%.

With `CCNC(=O)c1sc(SC)cc1[Si](C)(C)C` [Example 261, N-Ethyl-5-(methylthio)-3-(trimethylsilyl)-2-thiophenecarboxamide], under “0.1 ppm in minimal media agar”, the inhibition at 0.1 ppm was 14%. In addition, for the setting “1 ppm in minimal media agar”, the inhibition at 1 ppm came to 25%. The inhibition at 10 ppm (10 ppm in minimal media agar) turned out to be 78%.

Regarding `CCCCCCCC[Si](C)(C)c1cccc(Cl)c1C(=O)NCC` [Example 182, 2-Chloro-6-(dimethyloctylsilyl)-N-ethylbenzamide], for the setting “0.1 ppm in minimal media agar”, the inhibition at 0.1 ppm amounted to 30%. Further, the inhibition at 1 ppm (1 ppm in minimal media agar) was 58%. Also, the inhibition at 10 ppm (10 ppm in minimal media agar) was 73%.

In the case of `C[Si](C)(C)c1cccc(Cl)c1C(=O)NCc1ccccn1` [Example 135, 2-Chloro-N-(2-pyridinylmethyl)-6-(trimethylsilyl)benzamide], the inhibition at 0.1 ppm (0.1 ppm in minimal media agar) was 22%. Besides, the inhibition at 1 ppm (1 ppm in minimal media agar) was found to be 17%. Moreover, the inhibition at 10 ppm (10 ppm in minimal media agar) turned out to be 39%.

In the case of `COCCNC(=O)c1c(Cl)cccc1[Si](C)(C)C` [Example 146, 2-Chloro-N-(2-methoxyethyl)-6-(trimethylsilyl)benzamide], where the note is “0.1 ppm in minimal media agar”, the inhibition at 0.1 ppm is 14%. In addition, the inhibition at 1 ppm (1 ppm in minimal media agar) is 65%. In addition, the inhibition at 10 ppm (10 ppm in minimal media agar) turned out to be 84%.

Turning to `CCOP(=O)(OCC)N(CC)C(=O)c1c(Cl)cccc1[Si](C)(C)C` [Example 278, [2-Chloro-6-(trimethylsilyl)benzoyl]ethylphosphoramidic acid, diethyl ester], the inhibition at 0.1 ppm (0.1 ppm in minimal media agar) was less than 0%. Moreover, under “1 ppm in minimal media agar”, the inhibition at 1 ppm is 50%. Besides, the inhibition at 10 ppm (10 ppm in minimal media agar) stood at 75%.

Regarding `CCNC(=O)c1c(F)cccc1-c1ccccc1C` [Example 94, N-Ethyl-2-fluoro-6-(2-methylphenyl)benzamide], where the note is “0.1 ppm in minimal media agar”, the inhibition at 0.1 ppm amounted to 9%. Besides, the inhibition at 1 ppm (1 ppm in minimal media agar) was found to be 63%. Also, the inhibition at 10 ppm (10 ppm in minimal media agar) worked out at 86%.

With `CCNC(=O)c1c(Cl)cccc1[Si](C)(C)C(C)(C)C` [Example 185, 2-Chloro-6-[(1,1-dimethylethyl)dimethylsilyl]-N-ethylbenzamide], the inhibition at 0.1 ppm (0.1 ppm in minimal media agar) was found to be 48%. Also, the inhibition at 1 ppm (1 ppm in minimal media agar) was found to be 56%. Where the note is “10 ppm in minimal media agar”, the inhibition at 10 ppm came to 72%.

Turning to `C[Si](C)(C)c1cccc(Cl)c1C(=O)NCc1ccc([N+](=O)[O-])cc1` [Example 137, 2-Chloro-N-[(4-nitrophenyl)-methyl]-6-(trimethylsilyl)-benzamide], the inhibition at 0.1 ppm (0.1 ppm in minimal media agar) is 17%. In addition, for the setting “1 ppm in minimal media agar”, the inhibition at 1 ppm turned out to be 61%. Besides, where the note is “10 ppm in minimal media agar”, the inhibition at 10 ppm is 100%.

As to `CCNC(=O)c1c(Cl)ccc(N(C)C)c1[Si](C)(C)C` [Example 237, 6-Chloro-3-(dimethylamino)-N-ethyl-2-(trimethylsilyl)benzamide], the inhibition at 0.1 ppm (0.1 ppm in minimal media agar) was 44%. Besides, the inhibition at 1 ppm (1 ppm in minimal media agar) was 93%. For the same compound, the inhibition at 10 ppm (10 ppm in minimal media agar) worked out at 96%.

Take `CCN(C(=O)c1cc(N(C)C)ccc1[Si](C)(C)C)C(OC)C(C)(C)C` (stereo not drawn) [Example 222, 5-(Dimethylamino)-N-ethyl-N-(1-methoxy-2,2-dimethylpropyl)-2-(trimethylsilyl)benzamide]: the inhibition at 0.1 ppm (0.1 ppm in minimal media agar) was less than 0%. For the same compound, the inhibition at 1 ppm (1 ppm in minimal media agar) is less than 0%. Also, the inhibition at 10 ppm (10 ppm in minimal media agar) was 96%.

In the case of `C[Si](C)(C)c1cccc(Cl)c1C(=O)NCc1cccs1` [Example 138, 2-Chloro-N-(2-thienylmethyl)-6-(trimethylsilyl)benzamide], the inhibition at 0.1 ppm (0.1 ppm in minimal media agar) was 14%. Moreover, the inhibition at 1 ppm (1 ppm in minimal media agar) is 36%. The inhibition at 10 ppm (10 ppm in minimal media agar) is 97%.

On to `CCNC(=O)c1c([Si](C)(C)C)ccc(S(C)(=O)=O)c1Cl` [Example 238, 2-Chloro-N-ethyl-3-(methylsulfonyl)-6-(trimethylsilyl)benzamide], for which, where the note is “0.1 ppm in minimal media agar”, the inhibition at 0.1 ppm is less than 0%. Further, the inhibition at 1 ppm (1 ppm in minimal media agar) is less than 0%. For the same compound, under “10 ppm in minimal media agar”, the inhibition at 10 ppm is 72%.

With `CCNC(=O)c1sc(I)cc1[Si](C)(C)C` [Example 257, N-Ethyl-5-iodo-3-(trimethylsilyl)-2-thiophenecarboxamide], the inhibition at 0.1 ppm (0.1 ppm in minimal media agar) was 3%. Besides, where the note is “1 ppm in minimal media agar”, the inhibition at 1 ppm stood at 23%. Also, the inhibition at 10 ppm (10 ppm in minimal media agar) came to 100%.

Turning to `CCN(CC)C(=O)c1c(Cl)cccc1N(C)C(C)(C)C` [Example 281, 2-Chloro-6-[(1,1-dimethylethyl)methylamino]-N,N-(diethyl)benzamide], the “In vitro (ppm) 0.1, Percent Inhibition” value (0.1 ppm in minimal media agar) came to 4%. In addition, the “In vitro (ppm) 1, Percent Inhibition” value (1 ppm in minimal media agar) is listed as “N (If the calculation resulted in “0” or less, as compared to the untreated control, a “N” is shown to indicate no control.)”. For the same compound, for the setting “10 ppm in minimal media agar”, the “In vitro (ppm) 10, Percent Inhibition” value amounted to 43%.
